Data from patent publication US9765085B2, “SHIP1 modulators and methods related thereto” (Aquinox Pharmaceuticals (Canada) Inc., priority 2013, dated 2017).

Target: T1, His-hSHIP1 enzyme (Homo sapiens, UniProt Q92835)
T1 construct: His
T1 sequence (Q92835 1-1189): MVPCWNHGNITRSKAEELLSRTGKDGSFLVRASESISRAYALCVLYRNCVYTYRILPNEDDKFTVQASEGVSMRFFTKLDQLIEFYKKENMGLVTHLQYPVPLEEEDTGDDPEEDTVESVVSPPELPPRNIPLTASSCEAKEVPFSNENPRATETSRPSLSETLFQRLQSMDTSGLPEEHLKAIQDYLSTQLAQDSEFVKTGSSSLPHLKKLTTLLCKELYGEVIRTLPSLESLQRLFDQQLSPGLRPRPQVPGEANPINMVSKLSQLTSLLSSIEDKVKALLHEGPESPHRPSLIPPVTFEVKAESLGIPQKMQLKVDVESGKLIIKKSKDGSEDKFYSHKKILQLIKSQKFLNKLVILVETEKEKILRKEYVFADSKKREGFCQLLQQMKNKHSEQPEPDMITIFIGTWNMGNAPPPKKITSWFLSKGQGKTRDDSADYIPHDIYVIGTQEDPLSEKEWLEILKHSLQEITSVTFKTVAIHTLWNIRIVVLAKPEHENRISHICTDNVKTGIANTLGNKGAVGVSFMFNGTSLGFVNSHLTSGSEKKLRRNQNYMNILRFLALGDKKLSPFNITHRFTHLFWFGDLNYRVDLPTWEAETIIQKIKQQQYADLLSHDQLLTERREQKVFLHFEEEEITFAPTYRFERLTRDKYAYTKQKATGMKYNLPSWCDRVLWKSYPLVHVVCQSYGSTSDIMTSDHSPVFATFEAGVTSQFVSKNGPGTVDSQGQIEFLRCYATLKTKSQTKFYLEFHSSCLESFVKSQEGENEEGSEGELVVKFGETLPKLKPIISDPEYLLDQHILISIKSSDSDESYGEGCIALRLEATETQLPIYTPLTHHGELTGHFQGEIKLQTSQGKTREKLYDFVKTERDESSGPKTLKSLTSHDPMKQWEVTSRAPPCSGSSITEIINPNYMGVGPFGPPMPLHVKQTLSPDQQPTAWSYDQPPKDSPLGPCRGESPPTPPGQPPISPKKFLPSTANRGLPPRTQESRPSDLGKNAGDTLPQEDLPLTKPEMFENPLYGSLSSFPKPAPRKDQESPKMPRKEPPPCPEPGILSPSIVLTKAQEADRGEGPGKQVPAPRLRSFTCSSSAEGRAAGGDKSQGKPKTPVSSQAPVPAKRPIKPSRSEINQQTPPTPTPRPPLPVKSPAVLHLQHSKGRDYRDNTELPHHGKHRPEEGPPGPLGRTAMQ
Assay: His-hSHIP1 activity (phosphatase assay, IP4 substrate, Biomol Green)
Type: biochemical
Parameters: key: +++: higher than reference or reference - 15%; ++: reference - 16% to reference - 30%; +: reference - 31% or lower; −: inhibitor
Settings: ratio of initial velocities (IP4 25/IP4 250 μM final) compared with a reference SHIP1 activator; 37° C.
Method: Test compounds are dissolved in 95% ethanol to form stock solutions. Before screening, the stock solutions are diluted with Phosphatase Assay Buffer (20 mM Tris-HCL, 10 mM MgCl2 pH 7.5, 0.02% Tween 20) to form working assay solutions that contain 10% ethanol. The assay is carried out on 96-well microtiter plates using a modified procedure of that reported by Ong et al., Blood 110, 1942-1949, 2007 and Yang et al., Org Lett 7, 1073-1076, 2005, both of which references are incorporated herein by reference in their entirety.
A master mix is prepared that contains 50 μL of His-hSHIP1 enzyme (0.4-1.6 ng/μL final), 25 μL of the substrate, IP4 (25 or 250 μM final), and 50 μL of test compound in 3.3% ethanol ([…]). Control blanks are also prepared by replacing His-hSHIP1 enzyme, IP4, or test compounds with Phosphate Assay Buffer. […] Each reaction component is preincubated at 37° C. for 30 min before adding to a 96-well microtiter plate. The master mix is then incubated at 37° C. At time 0, 20, 25 and 30 min, 25 μL of the master mix is removed and transferred to a new 96-well microtiter plate, to which 100 μL of Biomol Green Reagent is added to stop the reaction. After incubating the mixture for 20 min at room temperature for color development, the absorbance is read with SpectraMax Plus 96-well plate reader at a wavelength of 650 nm. Phosphate released is plotted against time to calculate the initial velocities (i.e., slope of the graph) at each IP4 concentration. The initial velocities are baseline corrected and the ratio of initial velocities (IP425/IP4250) is calculated and used to rate the test compounds.
The compound numbers in Table 2 correspond to the compound numbers in Table 1 above. Scoring of the compound is expressed as follows: […]

Scoring (Initial Velocity Ratio) | Compound
++ | C=C1CC[C@H]2[C@H](CO)[C@@H]([C@@]3(C)Cc4conc4C[C@@H]3CO)CC[C@]12C [compound 22, ((3aS,4R,5S,7aS)-5-((5R,6S)-6-(hydroxymethyl)-5-methyl-4,5,6,7-tetrahydrobenzo[c]isoxazol-5-yl)-7a-methyl-1-methyleneoctahydro-1H-inden-4-yl)methanol]
++ | C[C@@H]1CC[C@@]2(OC1)O[C@H]1C[C@H]3[C@H](CO)[C@@H]([C@@]4(C)CC[C@H](O)C[C@@H]4CO)CC[C@]3(C)[C@H]1[C@@H]2C [compound 29, (1S,3S,4R)-3-(hydroxymethyl)-4-((2R,3S,3aR,3bS,5′R,6S,7R,7aS,8aS)-7-(hydroxymethyl)-3,3b,5′-trimethyltetradecahydrospiro[indeno[2,1-b]furan-2,2′-pyran]-6-yl)-4-methylcyclohexanol]
+++ | CC1(C)CCC2=C1CC[C@H]([C@@]1(C)Cc3cnoc3C[C@@H]1CO)[C@H]2CO [compound 23, ((5R,6S)-5-((4R,5S)-4-(hydroxymethyl)-1,1-dimethyl-2,3,4,5,6,7-hexahydro-1H-inden-5-yl)-5-methyl-4,5,6,7-tetrahydrobenzo[d]isoxazol-6-yl)methanol]

Further lines, the molecule ahead of its results:

Compound | Scoring (Initial Velocity Ratio)
C[C@]1([C@H]2CC[C@]3(C)C(c4ccco4)=CC[C@H]3[C@@H]2CN)CC[C@H](O)C[C@@H]1CO [compound 13, (1S,3S,4R)-4-((3aS,6S,7R,7aS)-7-(aminomethyl)-3-(furan-2-yl)-3a-methyl-3a,4,5,6,7,7a-hexahydro-1H-inden-6-yl)-3-(hydroxymethyl)-4-methylcyclohexanol] | +
CC(=O)O.CC1(C2CCC3(C)C(CCC3(O)c3ccccc3)C2CN)CCC(O)CC1CO [compound 11, (1S,3aS,4R,5S,7aS)-4-(aminomethyl)-5-((1R,2S,4S)-4-hydroxy-2-(hydroxymethyl)-1-methylcyclohexyl)-7a-methyl-1-phenyloctahydro-1H-inden-1-ol acetate] | −
C[C@]1([C@H]2CC[C@@]3(C)[C@@H](CC[C@@]3(O)c3ccco3)[C@@H]2CN)CC[C@H](O)C[C@@H]1CO [compound 12, (1S,3aS,4R,5S,7aS)-4-(aminomethyl)-1-(furan-2-yl)-5-((1R,2S,4S)-4-hydroxy-2-(hydroxymethyl)-1-methylcyclohexyl)-7a-methyloctahydro-1H-inden-1-ol] | +++
C[C@]1([C@H]2CC[C@]3(C)C(c4ccccc4)=CC[C@H]3[C@@H]2CN)CC[C@H](O)C[C@@H]1CO.Cl [compound 10, (1S,3S,4R)-4-((3aS,6S,7R,7aS)-7-(aminomethyl)-3a-methyl-3-phenyl-3a,4,5,6,7,7a-hexahydro-1H-inden-6-yl)-3-(hydroxymethyl)-4-methylcyclohexanol hydrochloride] | ++
CC1(C)CCC2=C1CC[C@H]([C@@]1(C)CC[C@H](O)C[C@@H]1CO)[C@H]2CNC(=O)c1cccnc1 [compound 1, N-(((4R,5S)-5-((1R,2S,4S)-4-hydroxy-2-(hydroxymethyl)-1-methylcyclohexyl)-1,1-dimethyl-2,3,4,5,6,7-hexahydro-1H-inden-4-yl)methyl)nicotinamide] | +
